Converted amounts (≈) assume the structure as drawn.
Assays:
[1] = Isothermal titration calorimetry (ITC) sterol binding
Excerpt: (§1) This key discovery opened a path to the rational development of a non-toxic AmB variant. To probe its predicted role in sterol binding, the hydroxyl group was synthetically deleted at the C2′ position on the mycosamine appendage.
A practical 11-step synthesis of C2′epiAmB using a frontier site-selective acylation method was developed. Wilcock, B. C. et al., Nat Chem 2012, 4 (12), 996-1003; Uno, B. E. A synthesis enabled understanding of Amphotericin B leading to derivatives with improved therapeutic indices. University of Illinois at Urbana-Champaign, 2014. The sterol binding and cell killing activities was then determined.

[2] = rat, in vivo
human red blood cells = test: Toxicity to human red blood cells; assay type: cell-based
Excerpt: as §1
In each case, C2′epiAmB is non-toxic to human red blood cells, primary hREC, mice, and rats up to the highest dose tested.

[3] = test system: 40 Aspergillus clinical isolates, including azole-resistant A. fumigatus, A. flavus, and A. terreus; test: Antifungal testing, Fungus Testing Laboratory UT-San Antonio; assay type: cell-based
Excerpt: (§2) In vitro antifungal activity of C2′ epiAmB was compared with that of AmB against an extensive series of Candida and Aspergillus clinical isolates (FIG. 6A) at Evotec (Oxfordshire, UK). […] C2′epiAmB was also sent to the US national Fungus Testing Laboratory at UT-San Antonio for antifungal testing against an extended panel of especially challenging 40 Aspergillus clinical isolates, including azole-resistant A. fumigatus, A. flavus, and A. terreus (FIG. 6B).

[4] = test system: clinically relevant invasive molds; test: Activity against broader panel of invasive molds; assay type: cell-based; settings: many strains, including pan-azole resistant strain F14196
Excerpt: as §2

A. fumigatus AF91 = test: In vitro antifungal activity (Evotec); assay type: cell-based; settings: strain AF91
Excerpt: as §2

A. fumigatus AF293 = test: In vitro antifungal activity (Evotec); assay type: cell-based; settings: strain AF293
Excerpt: as §2

A. fumigatus A1163 = test: In vitro antifungal activity (Evotec); assay type: cell-based; settings: strain A1163
Excerpt: as §2

A. fumigatus ATC204305 = test: In vitro antifungal activity (Evotec); assay type: cell-based; settings: strain ATC204305
Excerpt: as §2

[5] = test system: Candida and Aspergillus clinical isolates; test: In vitro antifungal activity against clinical isolates (Evotec); assay type: cell-based; settings: many Candida and several Aspergillus strains
Excerpt: as §2

C. albicans = test: Murine model of invasive candidiasis; assay type: in vivo, mice
Procedure: Andes, D. et al., Antimicrobial agents and chemotherapy 2001, 45 (3), 922-6. In fact, the PD parameter that best correlates with outcome is Cmax-/MIC. The same was subsequently observed in a pulmonary model of invasive aspergillosis. Wiederhold, N. P. et al., Antimicrobial agents and chemotherapy 2006, 50 (2), 469-73.
A clinical isolate of C. albicans (SN250) was grown and quantified on SDA. For 24 h before infection, the organism was subcultured at 35° C. on SDA slants. A 106CFU/ml inoculum was prepared by placing six fungal colonies into 5 ml of sterile, depyrogenated normal (0.9%) saline warmed to 35° C. Six week-old ICR/Swiss specific-pathogen-free female mice were obtained from Harlan Sprague Dawley (Madison, Wis.). The mice were weighed (23-27 g) and disseminated candidiasis was induced via tail vein injection of 100 μl of inoculum. AmB and C2′ epiAmB were reconstituted in their deoxycholate form with 1.0 ml of saline5% dextrose. Each animal in the treatment group was given a single 200-μl intravenous (IV) injection of reconstituted AmB and C2′epiAmB 2 h after infection. Doses were calculated in terms of mg of compound per kg of body weight. At 24 h after infection, three animals per experimental condition were killed by CO2 asphyxiation. The kidneys from each animal were removed and homogenized. The homogenate was diluted serially tenfold with […] and plated on SDA. […]

[6] = Intravenous toxicity in mice; settings: up to the highest dose tested
Candida albicans SN250 = test: MIC against Candida albicans SN250; assay type: cell-based

C[C@@H]1[C@H](O)[C@@H](C)/C=C/C=C/C=C/C=C/C=C/C=C/C=C/[C@H](OC2O[C@H](C)[C@@H](O)[C@H](N)[C@H]2O)CC2O[C@](O)(C[C@@H](O)C[C@@H](O)[C@H](O)CC[C@@H](O)C[C@@H](O)CC(=O)O[C@H]1C)C[C@H](O)[C@H]2C(=O)O (stereo partly drawn) [C2′epiAmB, C2′epi amphotericin B]
binding of ergosterol by ITC [1]: bind ergosterol
binding of cholesterol by ITC ([1]; within the detection limits of ITC): not (detectably) cholesterol
toxicity in rats [2]: non-toxic
toxicity to human red blood cells (human red blood cells): non-toxic
less potent than AmB, average ([3]; average across all 40 strains): 5.6 fold
less potent than AmB ([3]; range over 40 Aspergillus clinical isolates): 2-16 times
antifungal potency [4]: good antifungal potency
less potent than AmB (A. fumigatus AF91): > 32 times
less potent than AmB (A. fumigatus AF293): 4 fold
less potent than AmB (A. fumigatus A1163): 4 fold
less potent than AmB (A. fumigatus ATC204305): 4 fold
in vitro antifungal activity [5]: good activity
fungal burden (C. albicans; 16 mg/kg dose): outstanding reductions in fungal burden
efficacy (C. albicans; neutropenic ICR/Swiss mice, deoxycholate complex, single injection 1, 4, 8, or 16 mg/kg): dose-dependent efficacy
toxicity in mice [6]: non-toxic
MIC (Candida albicans SN250): 0.5 µM (≈ 0.462 µg/mL)

— patent US20220370486A1, “COMBINATION TREATMENT OF SYSTEMIC FUNGAL INFECTIONS” (The Board of Trustees of the University of Illinois, priority 2019, published 2022)
